Source: patent US20100009936A1, “CHEMICAL COMPOUNDS” (PRAECIS PHARMACEUTICALS INCORPORATED, priority 2006, published 2010)

Legend:
human S1P3 receptor = target: T1, human S1P3 receptor (Homo sapiens, UniProt Q99500); assay: GTPgS assay, S1P3; assay type: biochemical; settings: [35S]-GTPgS, membranes of RBL cells expressing human S1P3; tested as trifluoracetic acid salt; read-out: pEC50 in the S1P3 assay (converted)
T1 construct: expressed in transfected cells; membranes
Experimental: (§1) For membrane preparations all steps were performed at 4° C. Rat hepatoma cells stably expressing the human S1P1 receptor or Rat Basophilic Leukaemia cells (RBL) stably expressing human S1P3 receptor were grown to 80% confluency before being harvested into 10 ml Phospho-Buffered Saline (PBS) and centrifuged at 1200 rpm for 5 minutes. After removal of the supernatant, the pellet was re-suspended and cells were homogenised within a glass Waring blender for 2 bursts of 15 secs in 200 mls of buffer (50 mM HEPES, […], 25 ug/ml bacitracin, 1 mM EDTA, 1 mM PMSF, 2 uM pepstatin A). The blender was plunged into ice for 5 mins after the first burst and 10-40 mins after the final burst to allow foam to dissipate. The material was then spun at 500 g for 20 mins and the supernatant spun for 36 mins at 48,000 g. The pellet was resuspended in the same buffer as above but without PMSF and pepstatin A. The material was then forced through a 0.6 mm needle, made up to the required volume, (usually ×4 the volume of the original cell pellet), aliquoted and stored frozen at −80° C. […]
(§2) After 30 minutes pre-coupling at 4° C. the bead and membrane suspension was dispensed into a white Greiner polypropylene LV384-well plate (5 ul/well), containing 0.1 ul of test compound or S1P. […] The final assay cocktail (10.1 ul) was centrifuged at 1000 rpm for 5 minutes then read immediately on a Viewlux. […]

S1P-1 receptor [1] = target: T2, S1P-1 receptor (Homo sapiens, UniProt P21453); assay: GTPgS assay, S1P1; assay type: biochemical; parameters: expressed in transfected cells; membranes; settings: [35S]-GTPgS, membranes of rat hepatoma cells expressing human S1P1; tested as trifluoracetic acid salt; read-out: pEC50 in the S1P1 assay (converted)
Experimental: as §1, §2

S1P-1 receptor [2] = target: T2, S1P-1 receptor; assay: [33P]sphingosine 1-phosphate binding assay, S1P-1 receptor; parameters: expressed in transfected cells; host or cells: HEK 293 T cells (transient, FuGENE 6), crude membranes
Experimental: In certain embodiments, the compounds of the invention selective for the S1P-1 receptor as compared to one or more of the other S1P receptors. For example, one set of compounds includes compounds which are selective for the S1P-1 receptor relative to the S1P-3 receptor. […] The EC50 of a compound is determined using the ^35S-GTPγS binding assay, as described in WO 03/061567, the entire contents of which are incorporated herein by reference. […] The IC50 of a compound is determined using the [^33P]sphingosine 1-phosphate binding assay, as described in Davis, M. D. et al., Sphingosine 1-Phosphate Analogs as Receptor Antagonists. J. Biol. Chem. (2005) 280:9833-9841, the entire contents of which are incorporated herein by this reference.
The terms “agonist” or “S1P-1 receptor agonist” as used herein include the compounds described herein which bind to and/or agonize the S1P-1 receptor. […] The compounds' IC50 for the S1P-1 receptor can be measured using the binding assays described in Example 13 or those described in WO 03/061567.
The ability of several of the compounds described herein to bind to the S1P-1 or S1P-3 receptor was also tested as follows.
For the membrane preparation, plasmid DNA was transfected into HEK 293 T cells using the FuGENE 6 transfection protocol (publicly available from Roche). […] Protein concentration was determined spectroscopically by Bradford protein assay. […]

C57Bl/6 mice = assay: Lymphopenia assay in mice; assay type: in vivo; settings: 10 mg/Kg oral dose, male C57Bl/6 mice, blood taken after 6 hours
Experimental: Several of the compounds described herein were evaluated for the ability to induce lymphopenia in mice. Male C57Bl/6 mice were divided into groups of three. A control group received the 3% BSA vehicle only. The other groups received a single dose of either a specified dose of test compound in vehicle administered orally (PO) and intravenously (IV). After 6 hours, the mice were anesthetized with isoflurane and approximately 250 μL of blood was removed from the retroorbital sinus and collected in an EDTA microtainer, mixed with an anticoagulant and placed on a tilt table until complete blood count (CBC) analysis.

T2 sequence (P21453 whole entry): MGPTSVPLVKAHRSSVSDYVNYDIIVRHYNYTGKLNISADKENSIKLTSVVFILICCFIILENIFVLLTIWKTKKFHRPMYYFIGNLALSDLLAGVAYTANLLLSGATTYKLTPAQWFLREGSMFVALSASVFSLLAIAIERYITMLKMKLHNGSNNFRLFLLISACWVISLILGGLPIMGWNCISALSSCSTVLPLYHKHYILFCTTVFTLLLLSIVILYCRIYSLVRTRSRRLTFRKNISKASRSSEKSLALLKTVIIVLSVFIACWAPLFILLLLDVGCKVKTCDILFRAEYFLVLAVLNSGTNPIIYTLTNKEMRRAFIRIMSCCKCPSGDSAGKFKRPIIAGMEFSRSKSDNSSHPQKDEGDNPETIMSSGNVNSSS
T1 sequence (Q99500 whole entry): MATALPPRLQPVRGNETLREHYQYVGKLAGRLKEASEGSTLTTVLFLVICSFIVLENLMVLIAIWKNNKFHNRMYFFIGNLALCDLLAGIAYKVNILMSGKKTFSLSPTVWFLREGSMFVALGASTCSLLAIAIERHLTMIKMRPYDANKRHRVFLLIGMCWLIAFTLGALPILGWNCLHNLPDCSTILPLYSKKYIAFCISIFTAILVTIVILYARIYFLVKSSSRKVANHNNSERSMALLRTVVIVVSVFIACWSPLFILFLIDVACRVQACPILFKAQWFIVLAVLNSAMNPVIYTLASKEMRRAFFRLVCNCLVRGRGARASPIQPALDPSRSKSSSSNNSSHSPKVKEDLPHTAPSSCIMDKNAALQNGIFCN

| SMILES | EC50 (human S1P3 receptor) [nM] | EC50 (S1P-1 receptor [1]) [nM] | IC50 (S1P-1 receptor [2]) [nM] | lymphopenia (C57Bl/6 mice) [%] |
| --- | --- | --- | --- | --- |
| CCCCCCCCOc1ccc(-c2nnc([C@@](C)(N)COP(=O)(O)O)s2)cc1C(F)(F)F [(S)-2-Amino-2-(5-(4-(octyloxy)-3-(trifluoromethyl)phenyl)-1,3,4-thiadiazol-2-yl)propyl dihydrogen phosphate] | 794 | 0.631 |  |  |
| C[C@](N)(COP(=O)(O)O)c1nnc(-c2ccc(OCCCCc3ccccc3)c(C(F)(F)F)c2)s1 |  |  | 3.23 |  |
| CCCCCCCCOc1ccc(-c2nnc([C@@](C)(N)CO)s2)cc1C(F)(F)F [(S)-2-amino-2-(5-(4-(octyloxy)-3-(trifluoromethyl)phenyl)-1,3,4-thiadiazol-2-yl)propan-1-ol] |  |  |  | 77 |
| CCCCCCCCOc1ccc(-c2cnc([C@@](C)(N)CO)s2)cc1C(F)(F)F [(S)-2-amino-2-(5-(4-(octyloxy)-3-(trifluoromethyl)phenyl)thiazol-2-yl)propan-1-ol] |  |  |  | 75 |
| CCCCCCCCOc1ccc(-c2cnc([C@@](C)(N)COP(=O)(O)O)s2)cc1C(F)(F)F [(S)-2-amino-2-(5-(4-(octyloxy)-3-(trifluoromethyl)phenyl)thiazol-2-yl)propyl dihydrogen phosphate] | 316 | 3.16 |  |  |
